# Source: BindingDB's records for patent US12454530 (Chiesi Farmaceutici, 2025)
# pIC50: −log10 of the molar value.
# Target: Lysophosphatidic acid receptor 1 (Homo sapiens, UniProt Q92633)
# Test: In Vitro Assay
# Method: CHO-hLPA1 cell lines are cultured in a humidified incubator at 5% CO2 in DMEM/F-12 (1:1) MIXTURE with 2 mM Glutamax, supplemented with 10% of Foetal Bovine Serum, 1 mM Sodium Pyruvate, 11 mM Hepes and 1× Penicillin/Streptomycin. […] Serial dilutions (1:3 or 1:4, 11 points CRC) of compounds are performed in 100% DMSO at 200× the final concentration. […] The final concentration of DMSO in the assay will be 0.5% in each well. Medium is removed by aspiration and cells are then incubated with 30 μl of a loading solution containing 5 μM of the cytoplasmic Ca2+ indicator Cal-520 AM in Assay Buffer containing 2.5 mM probenecid for 30 min at 37° C. incubator (cell loading). The loaded cell plates are transferred into the FLIPR instrument and calcium responses are monitored during the on-line addition protocols. For testing of compounds, after the cell loading, 10 μl/well of 4× antagonists' solution was added onto the cells. After 30 min pre-incubation (at 37° C.), 10 μl/well of 5× concentrated LPA EC80 was added and Ca2+ mobilization responses was followed during the on-line addition protocol. Intracellular peak fluorescence values subtracted by baseline fluorescence are exported and analysed to determine IC50 values, respectively.
# Sequence of Lysophosphatidic acid receptor 1 (Q92633 whole entry): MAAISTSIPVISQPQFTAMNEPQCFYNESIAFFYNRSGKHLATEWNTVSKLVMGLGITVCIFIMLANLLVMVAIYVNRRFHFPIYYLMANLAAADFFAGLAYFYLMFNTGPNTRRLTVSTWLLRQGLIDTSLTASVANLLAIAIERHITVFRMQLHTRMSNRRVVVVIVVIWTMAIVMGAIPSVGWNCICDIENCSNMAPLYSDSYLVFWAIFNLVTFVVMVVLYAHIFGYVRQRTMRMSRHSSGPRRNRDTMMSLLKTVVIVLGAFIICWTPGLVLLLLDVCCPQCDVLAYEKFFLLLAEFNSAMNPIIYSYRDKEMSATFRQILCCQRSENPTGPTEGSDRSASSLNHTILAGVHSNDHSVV
structure (smiles),measurement,value
"Cc1ccccc1[C@@H](C)OC(=O)Nc1c(C)noc1-c1ccc(NC(=O)[C@H]2CCCC[C@@H]2C(=O)O)c(C)n1 [US12454530, Example 32]",pIC50,> 7.30
